Results: patent US20060093617A1, “Peptides for inducing a CTL and/or HTL response to hepatitis C virus” (Innogenetics, N.V., priority 2004, published 2006)
Where a SMILES comes first, the peptide text is derived from it.

What follows are compounds tested against HLA-A02 (Homo sapiens, UniProt P04439, D140Y/D185E/D98H/E176V/E277Q/G131W/G231S/I119V/I121R/I166T/I218V/L300P/L318F/N151K/N90K/P208A/P217A/Q86G/Q94H/R138H/R169H/T345S) (assay: Competition binding assay using soluble HLA class I).

Row | Structure (SMILES) | IC50 [nM] | Ki [nM]
1 | CC[C@H](C)[C@H](NC(=O)[C@H](CO)NC(=O)[C@H](Cc1ccccc1)NC(=O)[C@H](CO)NC(=O)[C@H](CS)NC(=O)CNC(=O)[C@@H]1CCCN1C(=O)[C@H](CC(C)C)NC(=O)[C@@H](N)CC(N)=O)C(=O)O (H-NLPGCSFSI-OH) | 83 | 70
2 | CC[C@H](C)[C@H](N)C(=O)N[C@@H](CCSC)C(=O)N[C@@H](C)C(=O)N[C@@H](CS)C(=O)N[C@@H](CCSC)C(=O)N[C@@H](CO)C(=O)N[C@@H](C)C(=O)N[C@@H](CC(=O)O)C(=O)N[C@@H](CC(C)C)C(=O)O (H-IMACMSADL-OH; N-terminus and C-terminus assumed) | 66 | 66
3 | CC(C)[C@H](NC(=O)[C@@H](NC(=O)[C@H](C)NC(=O)[C@H](CCC(N)=O)NC(=O)[C@@H](N)Cc1ccc(O)cc1)[C@@H](C)O)C(=O)N[C@@H](CS)C(=O)N[C@@H](C)C(=O)N[C@@H](CCCNC(=N)N)C(=O)N[C@@H](C)C(=O)O (H-YQATVCARA-OH) | 20 | 20
4 | CC(C)C[C@H](NC(=O)[C@@H](NC(=O)[C@H](CO)NC(=O)[C@@H](NC(=O)[C@@H](N)C(C)C)C(C)C)[C@@H](C)O)C(=O)N1CCC[C@H]1C(=O)N[C@@H](CCC(N)=O)C(=O)N[C@@H](C)C(=O)N[C@H](C(=O)O)C(C)C (H-VVSTLPQAV-OH; N-terminus and C-terminus assumed) | – | 884
5 | CC[C@H](C)[C@H](NC(=O)[C@@H](N)CCC(N)=O)C(=O)N[C@H](C(=O)NCC(=O)NCC(=O)N[C@H](C(=O)N[C@@H](Cc1ccc(O)cc1)C(=O)N[C@@H](CC(C)C)C(=O)N[C@@H](CC(C)C)C(=O)O)C(C)C)C(C)C | 228 | –
6 | CC(C)C[C@H](NC(=O)[C@@H](N)Cc1ccc(O)cc1)C(=O)N[C@@H](Cc1ccccc1)C(=O)N[C@@H](CC(N)=O)C(=O)N[C@@H](Cc1c[nH]c2ccccc12)C(=O)N[C@@H](C)C(=O)N[C@H](C(=O)N[C@@H](CCCNC(=N)N)C(=O)N[C@H](C(=O)O)[C@@H](C)O)C(C)C (H-YLFNWAVRT-OH; N-terminus and C-terminus assumed) | 29 | 29
7 | CC[C@H](C)[C@H](NC(=O)[C@@H](NC(=O)[C@H](CC(C)C)NC(=O)[C@H](CS)NC(=O)[C@H](CO)NC(=O)[C@H](CC(C)C)NC(=O)[C@@H](N)CC(C)C)[C@@H](C)O)C(=O)N1CCC[C@H]1C(=O)N[C@@H](C)C(=O)O | 12 | 12
8 | CC(C)C[C@H](NC(=O)[C@@H](NC(=O)[C@@H](NC(=O)[C@H](CC(C)C)NC(=O)[C@@H](N)CCCNC(=N)N)C(C)C)C(C)C)C(=O)N[C@@H](C)C(=O)N[C@H](C(=O)N[C@@H](C)C(=O)N[C@H](C(=O)O)[C@@H](C)O)[C@@H](C)O | – | 16700
9 | CC[C@H](C)[C@H](N)C(=O)N[C@@H](CCSC)C(=O)N[C@@H](C)C(=O)N[C@@H](CCCCN)C(=O)N[C@@H](CC(N)=O)C(=O)N[C@@H](CCC(=O)O)C(=O)N[C@H](C(=O)N[C@@H](Cc1ccccc1)C(=O)N[C@@H](CS)C(=O)N[C@H](C(=O)O)C(C)C)C(C)C (H-IMAKNEVFCV-OH; N-terminus and C-terminus assumed) | 199 | 199
10 | CC[C@H](C)[C@H](NC(=O)[C@@H](NC(=O)[C@@H](N)CC(N)=O)[C@@H](C)CC)C(=O)N[C@@H](CCSC)C(=O)N[C@@H](Cc1ccc(O)cc1)C(=O)N[C@@H](C)C(=O)N1CCC[C@H]1C(=O)N[C@H](C(=O)N[C@@H](CC(C)C)C(=O)O)[C@@H](C)O | 70 | 70
11 | CC(C)C[C@H](NC(=O)[C@H](CC(C)C)NC(=O)[C@@H]1CCCN1C(=O)[C@@H](NC(=O)[C@@H]1CCCN1C(=O)CNC(=O)[C@H](Cc1c[nH]cn1)NC(=O)[C@H](CC(C)C)NC(=O)[C@@H](N)[C@@H](C)O)[C@@H](C)O)C(=O)O | 68 | 68
12 | CC(C)C[C@H](NC(=O)[C@@H](NC(=O)[C@H](CC(C)C)NC(=O)[C@@H](NC(=O)[C@@H](N)CCCCN)C(C)C)C(C)C)C(=O)N[C@@H](CC(N)=O)C(=O)N1CCC[C@H]1C(=O)N[C@@H](CO)C(=O)N[C@H](C(=O)O)C(C)C (H-KVLVLNPSV-OH) | 50 | 50
13 | CC(C)C[C@H](NC(=O)[C@H](C)NC(=O)[C@H](CC(C)C)NC(=O)[C@H](CC(C)C)NC(=O)[C@H](CC(C)C)NC(=O)[C@H](CC(C)C)NC(=O)[C@H](CC(C)C)NC(=O)[C@H](CC(C)C)NC(=O)[C@@H]1CCCN1)C(=O)O [PLLLLLLAL] (H-PLLLLLLAL-OH) | – | 6550
14 | CC(C)C[C@H](NC(=O)[C@@H]1CCCN1C(=O)[C@H](Cc1c[nH]c2ccccc12)NC(=O)[C@@H]1CCCN1C(=O)[C@H](Cc1ccc(O)cc1)NC(=O)CNC(=O)[C@@H]1CCCN1C(=O)[C@H](CCC(N)=O)NC(=O)[C@H](C)N)C(=O)O (H-AQPGYPWPL-OH; N-terminus and C-terminus assumed) | – | 382
15 | CC[C@H](C)[C@H](NC(=O)[C@H](Cc1c[nH]cn1)NC(=O)[C@@H](NC(=O)[C@H](CC(C)C)NC(=O)CNC(=O)[C@@H](NC(=O)[C@H](Cc1ccccc1)NC(=O)[C@@H](NC(=O)[C@@H](N)CO)C(C)C)[C@@H](C)O)[C@@H](C)O)C(=O)O | – | 84
16 | CC[C@H](C)[C@H](N)C(=O)N[C@@H](CCSC)C(=O)N[C@@H](Cc1ccc(O)cc1)C(=O)N[C@@H](C)C(=O)N1CCC[C@H]1C(=O)N[C@H](C(=O)N[C@@H](CC(C)C)C(=O)N[C@@H](Cc1c[nH]c2ccccc12)C(=O)N[C@@H](C)C(=O)O)[C@@H](C)O | 46 | 46
17 | CC(C)C[C@H](NC(=O)[C@@H](NC(=O)[C@@H](N)CC(C)C)C(C)C)C(=O)N[C@@H](CC(N)=O)C(=O)N1CCC[C@H]1C(=O)N[C@@H](CO)C(=O)N[C@H](C(=O)N[C@@H](C)C(=O)N[C@@H](C)C(=O)O)C(C)C | – | 1680
18 | CC(C)C[C@H](NC(=O)[C@H](CC(C)C)NC(=O)[C@H](Cc1c[nH]c2ccccc12)NC(=O)CNC(=O)[C@H](C)NC(=O)[C@H](Cc1c[nH]c2ccccc12)NC(=O)CNC(=O)[C@H](CC(C)C)NC(=O)CN)C(=O)O | – | 27
19 | CC(C)C[C@H](NC(=O)[C@H](C)NC(=O)[C@H](CC(C)C)NC(=O)[C@H](CC(C)C)NC(=O)[C@@H](N)Cc1ccccc1)C(=O)N[C@@H](CC(C)C)C(=O)N[C@@H](CO)C(=O)N[C@@H](CS)C(=O)N[C@@H](CC(C)C)C(=O)N[C@H](C(=O)O)[C@@H](C)O | 132 | 132
20 | CC[C@H](C)[C@H](NC(=O)[C@@H](N)Cc1ccc(O)cc1)C(=O)N1CCC[C@H]1C(=O)N[C@@H](CC(C)C)C(=O)N[C@H](C(=O)NCC(=O)N[C@@H](C)C(=O)N1CCC[C@H]1C(=O)N[C@@H](CC(C)C)C(=O)O)C(C)C | 337 | 77
21 | CC(C)C[C@H](NC(=O)[C@H](CS)NC(=O)[C@H](CO)NC(=O)[C@H](CC(C)C)NC(=O)[C@H](CC(C)C)NC(=O)[C@H](C)NC(=O)[C@H](CC(C)C)NC(=O)[C@H](CC(C)C)NC(=O)[C@@H](N)Cc1ccccc1)C(=O)O | 136 | 136
22 | CC[C@H](C)[C@H](NC(=O)[C@@H](N)Cc1ccccc1)C(=O)N1CCC[C@H]1C(=O)N[C@H](C(=O)N[C@@H](CCC(=O)O)C(=O)N[C@@H](CO)C(=O)N[C@@H](CCSC)C(=O)N[C@@H](CCC(=O)O)C(=O)N[C@H](C(=O)O)[C@@H](C)O)C(C)C (H-FIPVESMET-OH) | – | 934
23 | CC[C@H](C)[C@H](NC(=O)[C@H](CS)NC(=O)CNC(=O)[C@H](CC(C)C)NC(=O)[C@H](CC(C)C)NC(=O)CN)C(=O)N[C@H](C(=O)N[C@H](C(=O)N[C@@H](CO)C(=O)N[C@@H](CC(C)C)C(=O)O)[C@@H](C)O)[C@@H](C)CC | 26 | 26
